According to patent US6214876A, “Indene-1-acetamide sPLA2 inhibitors” (Eli Lilly and Company, priority 1994, dated 2001):

Target: T1, recombinant human secreted phospholipase A2 (Homo sapiens, UniProt P14555)
T1 sequence (P14555 21-144): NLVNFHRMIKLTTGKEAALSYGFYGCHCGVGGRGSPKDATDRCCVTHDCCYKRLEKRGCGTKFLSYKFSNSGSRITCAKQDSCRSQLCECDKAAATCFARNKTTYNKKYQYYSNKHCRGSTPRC
Assay: PLA2 Chromogenic Assay (human secreted phospholipase A2 inhibition)
Type: biochemical
Conditions: racemic diheptanoyl thio-PC 1 mM, pH 7.5, 40° C., 30 minutes, 405 nanometers, triplicate, read-out: Compound IC50
From the text: The following chromogenic assay procedure was used to identify and evaluate inhibitors of recombinant human secreted phospholipase A2. The assay described herein has been adapted for high volume screening using 96 well microtiter plates. A general description of this assay method is found in the article, "Analysis of Human Synovial Fluid Phospholipase A2 on Short Chain Phosphatidylcholine-Mixed Micelles: Development of a Spectrophotometric Assay Suitable for a Microtiterplate Reader", by Laure J. Reynolds, Lori L. Hughes, and Edward A Dennis, Analytical Biochemistry,204, pp. 190-197, 1992 (the disclosure of which is incorporated herein by reference): […]
A measured volume of racemic dipheptanoyl thio PC supplied in chloroform at a concentration of 100 mg/ml is taken to dryness and redissolved in 10 millimolar TRITON X-100™ nonionic detergent aqueous solution. […]
5. Read absorbance of wells at 405 nanometers with an automatic plate reader.
All compounds were tested in triplicate. […] Compounds initially found to be active were reassayed to confirm their activity and, if sufficiently active, IC50 values were determined. […] In all cases, % inhibition measured at 405 nanometers generated by enzyme reactions containing inhibitors relative to the uninhibited control reactions was determined. […] IC50 were determined by plotting log concentration versus inhibition values in the range from 10-90% inhibition.

IC50 [nM]	SMILES
910	CC1=C(CC(N)=O)c2cc(OCCCC(=O)O)ccc2/C1=C\c1ccccc1 [Compound 14a, 4-[3(z)-benzylidene-1-carbamoylmethyl-2-methyl-3H-inden-6-yloxy]-butanoic acid]
420	CC1=C(CC(N)=O)c2c(OCC(=O)O)cccc2/C1=C\c1ccccc1 [Compound 14b, [3(z)-benzylidene-1-carbamoylmethyl-2-methyl-3H-inden-7-yloxy]-acetic acid]
